Data from article PMC4104029, “Mechanism of Action of Compound-13: An α1-Selective Small Molecule Activator of AMPK” (Chemistry & Biology, 2014).

System: isolated, full-length AMPKα1 and α2 subunits
Test: Isolated AMPKα subunit activity assay
Type: biochemical, human
Conditions: C2 0–1000 nM, conditions as Figure 1B
Description: Supplemental Figure Legends:
Figure S1, related to Figures 1-3. Subunit composition of AMPK preparations used in this study. (A) Heterotrimeric AMPK complexes (10 ng) produced in both Sf9 (Sigma and Signalchem) and E.coli (in our laboratory) were analysed by Western blotting using isoform specific antibodies. Note that both the α2/α1-HOOK and α2/α1-LOOP chimeras are no longer recognised by the anti-α2 antibody as the epitope has been replaced (see Fig S4). (B) Heterotrimeric AMPK α2/α1 chimeric complexes expressed in E.coli (2 μg) were separated by SDS-PAGE and stained with Coomassie G-250. Arrows indicate the position of the […]
Figure S2, related to Figure 1. C2 has negligible effects on a panel of 138 protein kinases.
Kinase inhibition screen was performed by the International Centre for Kinase profiling (Dundee). Assays were performed in duplicate using 10 µM C2 and are representative of two independent screens. Results are shown in rank order as mean % activity compared with controls in the absence of compound ± SD. […]
Figure S3, related to Figure 2. […] Results are expressed as mean Pi incorporated in nmol.min-1.mg-1 ± SD. […] Results are expressed as fold increase in activity relative to controls in the absence of compound ± SD.
(E) C2 and AMP displace a GST-AMPKγ2 subunit fusion from ATP-γ-Sepharose. […] The presence of eluted AMPKγ2 was analysed by SDS-PAGE and staining with colloidal Coomassie. […]

With `O=P(O)(O)c1ccc(-c2cc(O)on2)o1` [Compound C2, 5-(5-hydroxyl-isoxazol-3-yl)-furan-2-phosphonic acid] the effect on activity was “no effect”.
